Values after ≈ are worked out from the molar mass of the structure shown. Values joined by “and” are separate entries in the source; they are usually repeats but may differ in a detail not shown here. Equal entries are not always repeated. “Also recorded” adds a separate entry of the source. Where two headings read alike, the source gives them in different places.
Columns and labels:
HT-29 human colon tumor = experiment: nude mouse xenograft model of the HT-29 human colon tumor; type: in vivo; conditions: for Complete Regressions / Days Delay T-C / Drug-related Deaths: nude mouse
Method: (§1) The dosing schedule was Q3D×5.
In the nude mouse xenograft model of the HT-29 human colon tumor (Table 3), doxorubicin produced a T-C delay of 15.3 days at the MTD dose of 6 mg/kg, whereas P-367 (LOC-GABA-doxorubicin) produced a T-C delay of 32 days at 50 mg/kg and 22 at 25 mg/kg. Note that the activity of the lowest dose of LOC-GABA-doxorubicin is approximately equivalent to the highest, MTD of doxorubicin itself.

[1] = Stability in mouse serum/plasma at 37° C., HPLC; type: in vitro ADME
Method: […] Serum samples added with only ethanol/Cremophor® were used as controls.
Aliquots (100 μL) were taken from the spiked samples at 0, 1, 4, 8 and 24 h time intervals. Proteins were precipitated from the spiked solutions by the addition of 300 μL of acetonitrile. The suspensions were centrifuged and the supernatant transferred to separate microfuge tubes. The precipitate was washed twice with 300 μL of 90% acetonitrile. The wash solutions were combined with the supernatant and evaporated to dryness using a Centrivap Concentrator. The residue was then dissolved in 100 μL of methanol. Vortex mixing and sonication for 30 sec each were used to help dissolve the residue. The solution was then centrifuged at 10,000 rpm for 15 min. A 20 μL aliquot of the supernatant was analyzed by HPLC (Phenomenex column, C18, 250×4.6 mm, 5 u) using the following gradient conditions: […]
UV detection: 487 nm; column temperature: 40° C.; flow rate: 1 mL/min. Analytes were quantitated by comparison of peak areas from direct injections of standard solutions with those obtained from samples subjected to the extraction procedure. The percent recovery of spiked analytes was calculated by comparison of the sample peak areas before incubation (time: 0 h) with those subjected to incubation at 37° C. […]

tumor growth = experiment: anti-tumor activity of GABA-linked conjugate compared to the unconjugated anticancer agent (model not given); type: in vivo; conditions: model not specified
From the text: The anti-tumor activity of LOC-GABA-doxorubicin was studied in three tumor models.

[2] = test system: MDA-MB-435 human breast tumor; experiment: nude mouse xenograft model of the MDA-MB-435 human breast tumor; type: in vivo; conditions: for Complete Regressions / Days Delay T-C / Drug-related Deaths: nude mouse
Method: as §1
In the nude mouse xenograft model of the MDA-MB-435 human breast tumor (Table 4), doxorubicin produced a T-C delay of 14 days at the approximate MTD dose of 6 mg/kg (1/10 drug-related deaths). In the same model, LOC-GABA-doxorubicin produced a T-C delay of 13 days at 50 mg/kg (6/10 drug-related deaths) and 1.5 days at 25 mg/kg (0 drug-related deaths).

M109-Lung Tumor = M109-Lung Tumor Model (Table 5, second study with OOC-GABA-doxorubicin); type: in vivo, mouse
From the text: as §1

[3] = Solubility in solvents/excipients; type: physicochemical
From the text: Table 7 summarizes the solubility of LOC-GABA-doxorubicin in several solvents.

[4] = Toxicology: maximum tolerated dose, i.v. Q3D×5; conditions: mouse, in vivo, iv; i.v. 5 times on a once every three day schedule
From the text: as §1

[5] = test system: Madison 109 (M109) mouse lung carcinoma
Method: In all of the following in vivo experiments, the parent compound, doxorubicin, was injected intravenously (i.v.) in saline, while the fatty acid conjugates of doxorubicin were injected i.v. in 10% Cremophor® EL-P/10% ethanol/80% saline. The dosing schedule was Q3D×5.
T-C in this assay is defined as the time in days for the drug-treated tumors to double their mass three times subtracted […] to double their mass three times.

CCCCC/C=C\C/C=C\CCCCCCCCOC(=O)NCCCC(=O)N[C@H]1C[C@H](O[C@H]2C[C@](O)(C(=O)CO)Cc3c(O)c4c(c(O)c32)C(=O)c2c(OC)cccc2C4=O)O[C@@H](C)[C@H]1O [LOC-GABA-doxorubicin, linoleyl alcohol-GABA-doxorubicin]
Complete Regressions (HT-29 human colon tumor; 12.5 mg/kg i.v. Q3D×5): 0 | Days Delay T-C (HT-29 human colon tumor; 12.5 mg/kg i.v. Q3D×5): 5.4 days | Drug-related Deaths (HT-29 human colon tumor; 12.5 mg/kg i.v. Q3D×5): 0/10 | Complete Regressions (HT-29 human colon tumor; 25 mg/kg i.v. Q3D×5): 0 | Days Delay T-C (HT-29 human colon tumor; 25 mg/kg i.v. Q3D×5): 22 days | Drug-related Deaths (HT-29 human colon tumor; 25 mg/kg i.v. Q3D×5): 0/10 | Complete Regressions (HT-29 human colon tumor; 50 mg/kg i.v. Q3D×5): 0 | Days Delay T-C (HT-29 human colon tumor; 50 mg/kg i.v. Q3D×5): 32 days | Drug-related Deaths (HT-29 human colon tumor; 50 mg/kg i.v. Q3D×5): 0/10 | Complete Regressions (HT-29 human colon tumor; 75 mg/kg i.v. Q3D×5): 0 | Days Delay T-C (HT-29 human colon tumor; 75 mg/kg i.v. Q3D×5): 34 days | Drug-related Deaths (HT-29 human colon tumor; 75 mg/kg i.v. Q3D×5): 6/10 | anti-tumor activity compared to doxorubicin (HT-29 human colon tumor; HT29 human colon carcinoma xenograft): activity superior to doxorubicin; also recorded: superior anti-tumor activity | time stable in mouse plasma ([1]; 10 mg/mL formulation pH 7.5, 10 parts to 90 parts plasma): more than 8 hours | drug still present ([1]; mouse plasma, 24 hours): over 90% | anti-tumor activity compared to the unconjugated drug (tumor growth): superior | Complete Regressions ([2]; 12.5 mg/kg i.v. Q3D×5): 0 | Days Delay T-C ([2]; 12.5 mg/kg i.v. Q3D×5): -2.0 days | Drug-related Deaths ([2]; 12.5 mg/kg i.v. Q3D×5): 0/10 | Complete Regressions ([2]; 25 mg/kg i.v. Q3D×5): 0 | Days Delay T-C ([2]; 25 mg/kg i.v. Q3D×5): 1.5 days | Drug-related Deaths ([2]; 25 mg/kg i.v. Q3D×5): 0 and 0/10 | Complete Regressions ([2]; 50 mg/kg i.v. Q3D×5): 0 | Days Delay T-C ([2]; 50 mg/kg i.v. Q3D×5): 13 days | Drug-related Deaths ([2]; 50 mg/kg i.v. Q3D×5): 6/10 | Complete Regressions ([2]; 75 mg/kg i.v. Q3D×5): 0 | Days Delay T-C ([2]; 75 mg/kg i.v. Q3D×5): 21 days | Drug-related Deaths ([2]; 75 mg/kg i.v. Q3D×5): 9/10 | anti-tumor activity compared to doxorubicin ([2]; MDA-MB-435 human breast carcinoma xenograft): active, but somewhat less active than doxorubicin and somewhat less efficacious than doxorubicin and not | Complete Regressions (M109-Lung Tumor; 35 mg/kg i.v. Q3D×5): 0 | Days Delay T-C (M109-Lung Tumor; 35 mg/kg i.v. Q3D×5): 1.1 days | Drug-related Deaths (M109-Lung Tumor; 35 mg/kg i.v. Q3D×5): 0/5 | Complete Regressions (M109-Lung Tumor; 50 mg/kg i.v. Q3D×5): 0 | Days Delay T-C (M109-Lung Tumor; 50 mg/kg i.v. Q3D×5): 5.2 days | Drug-related Deaths (M109-Lung Tumor; 50 mg/kg i.v. Q3D×5): 0/5 | Complete Regressions (M109-Lung Tumor; 65 mg/kg i.v. Q3D×5): 0 | Days Delay T-C (M109-Lung Tumor; 65 mg/kg i.v. Q3D×5): 9.3 days | Drug-related Deaths (M109-Lung Tumor; 65 mg/kg i.v. Q3D×5): 0/5 | Complete Regressions (M109-Lung Tumor; 80 mg/kg i.v. Q3D×5): 0 | Days Delay T-C (M109-Lung Tumor; 80 mg/kg i.v. Q3D×5): 9.5 days | Drug-related Deaths (M109-Lung Tumor; 80 mg/kg i.v. Q3D×5): 0/5 | solubility ([3]; aqueous with cosolvent or surfactant or cyclodextrin, Cremophor ® EL-P:ethanol:saline (10:10:80)): 16.8 mg/mL (≈ 18.2 mM) | solubility ([3]; dimethyl isosorbide (DMI), organic solvent or mixture): 490 mg/mL (≈ 533 mM) | solubility ([3]; ethanol, organic solvent or mixture): 252 mg/mL (≈ 274 mM) | MTD [4]: 50 to 75 mg/kg | Drug-related Deaths ([5]; 50 mg/kg i.v. Q3D×5): 0/5 | Tumor Growth Delay T-C ([5]; 50 mg/kg i.v. Q3D×5): 28 days | Complete Regressions ([5]; 75 mg/kg i.v. Q3D×5): 0 | Drug-related Deaths ([5]; 75 mg/kg i.v. Q3D×5): 0/5 | Tumor Growth Delay T-C ([5]; 75 mg/kg i.v. Q3D×5): 25 days | Complete Regressions ([5]; 100 mg/kg i.v. Q3D×5): 0 | Drug-related Deaths ([5]; 100 mg/kg i.v. Q3D×5): 4/5 | Complete Regressions ([5]; 150 mg/kg i.v. Q3D×5): 0 | Drug-related Deaths ([5]; 150 mg/kg i.v. Q3D×5): 4/5
